Data published in patent US5869494A, “Uses for barbituric acid analogs” (priority 1997, dated 1999).

Key:
Assay in all cases: NCI tumor cell line screen (SRB assay)
Type in all cases: cell-based
[1] = test system: A498; parameters: activity: dose or concentration left out as unconfirmed; conditions: Homo sapiens, read-out: PERCENT GROWTH
Procedure: (§1) The National Cancer Institute carried out the studies at the direction of the present inventor.
(§2) In the tests, the National Cancer Institute used the SRB (sulforhodamine B) assay as described by Skehan et al., (Journal of the National Cancer Institute, 82:13, Jul. 4, 1990, 1107-1112). Briefly, the assay is as follows. TCA-fixed cells were stained for 30 minutes with 0.4% (wt/vol) SRB dissolved in 1% acetic acid. At the end of the staining period, SRB was removed and cultures were quickly rinsed four times with 1% acetic acid to remove unbound dye. The acetic acid was poured directly into the culture wells from a beaker. […] Residual wash solution was removed by sharply flicking plates over a sink, which ensured the complete removal of rinsing solution. […] After being rinsed, the cultures were air dried until no standing moisture was visible. Bound dye was solubilized with 10 mM unbuffered Tris base (pH 10.5) for 5 minutes on a gyratory shaker.
(§3) Optical density (OD) was read in either a UVmax microtiter plate reader (Molecular Devices, Menlo Park, Calif.) or a Beckman DU-70 spectrophotometer. For maximum sensitivity, OD was measured at 564 nm. Because readings were linear with dye concentrations only below 1.8 OD units, however, suboptimal wavelengths were generally used, so that all samples in an experiment remained within the linear OD range. With most cell lines, wavelengths of approximately 490-530 nm worked well for this purpose.
(§4) Nine different non-small cell lung carcinoma cell lines, six different colon carcinoma cell lines, six different CNS (central nervous system) carcinoma cell lines, seven different melanoma cell lines, six different ovarian carcinoma cell lines, and eight different renal carcinoma cell lines were tested.

[2] = test system: A549/ATCC; parameters: activity: dose or concentration left out as unconfirmed; conditions: Homo sapiens, read-out: PERCENT GROWTH
Procedure: as §1, §2, §3, §4

[3] = test system: EKVX; parameters: activity: dose or concentration left out as unconfirmed; conditions: Homo sapiens, read-out: PERCENT GROWTH
Procedure: as §1, §2, §3, §4

[4] = test system: HOP-92; parameters: activity: dose or concentration left out as unconfirmed; conditions: Homo sapiens, read-out: PERCENT GROWTH
Procedure: as §1, §2, §3, §4

[5] = test system: HT29; parameters: activity: dose or concentration left out as unconfirmed; conditions: Homo sapiens, HT-29, read-out: PERCENT GROWTH
Procedure: as §1, §2, §3, §4

[6] = test system: IGROV1; parameters: activity: dose or concentration left out as unconfirmed; conditions: Homo sapiens, IGROV-1, read-out: PERCENT GROWTH
Procedure: as §1, §2, §3, §4

[7] = test system: NCI-H226; parameters: activity: dose or concentration left out as unconfirmed; conditions: Homo sapiens, read-out: PERCENT GROWTH
Procedure: as §1, §2, §3, §4

[8] = test system: OVCAR-8; parameters: activity: dose or concentration left out as unconfirmed; conditions: Homo sapiens, read-out: PERCENT GROWTH
Procedure: as §1, §2, §3, §4

[9] = test system: SF-295; parameters: activity: dose or concentration left out as unconfirmed; conditions: Homo sapiens, read-out: PERCENT GROWTH
Procedure: as §1, §2, §3, §4

[10] = test system: SF-539; parameters: activity: dose or concentration left out as unconfirmed; conditions: Homo sapiens, read-out: PERCENT GROWTH
Procedure: as §1, §2, §3, §4

[11] = test system: SK-MEL-2; parameters: activity: dose or concentration left out as unconfirmed; conditions: Homo sapiens, read-out: PERCENT GROWTH
Procedure: as §1, §2, §3, §4

[12] = test system: SN12C; parameters: activity: dose or concentration left out as unconfirmed; conditions: Homo sapiens, read-out: PERCENT GROWTH
Procedure: as §1, §2, §3, §4

[13] = test system: SNB-75; parameters: activity: dose or concentration left out as unconfirmed; conditions: Homo sapiens, read-out: PERCENT GROWTH
Procedure: as §1, §2, §3, §4

[14] = test system: SW-620; parameters: activity: dose or concentration left out as unconfirmed; conditions: Homo sapiens, read-out: PERCENT GROWTH
Procedure: as §1, §2, §3, §4

[15] = test system: HCT-15; conditions: Homo sapiens, read-out: PERCENT GROWTH
Procedure: as §1, §2, §3, §4

[16] = test system: MALME-3M; conditions: Homo sapiens, read-out: PERCENT GROWTH
Procedure: as §1, §2, §3, §4

[17] = test system: NCI-H322M; conditions: Homo sapiens, read-out: PERCENT GROWTH
Procedure: as §1, §2, §3, §4

CCCCN1C(=O)CC(=O)N(CCCC)C1=S [Compound C1, 4,6(1H, 5H)-pyrimidinedione, 1,3-dibutyldihydro-2-thioxo]
activity ([1]; 10^-3.0 Molar): -81%
activity at 100 µM ([1]; 10^-4.0 Molar): 62%
activity at 10 µM ([1]; 10^-5.0 Molar): 96%
activity at 1 µM ([1]; 10^-6.0 Molar): 105%
activity at 0.1 µM ([1]; 10^-7.0 Molar): 99%
activity ([2]; 10^-3.0 Molar): -98%
activity at 100 µM ([2]; 10^-4.0 Molar): 67%
activity at 10 µM ([2]; 10^-5.0 Molar): 95%
activity at 1 µM ([2]; 10^-6.0 Molar): 95%
activity at 0.1 µM ([2]; 10^-7.0 Molar): 98%
activity ([3]; 10^-3.0 Molar): -69%
activity at 100 µM ([3]; 10^-4.0 Molar): 94%
activity at 10 µM ([3]; 10^-5.0 Molar): 104%
activity at 1 µM ([3]; 10^-6.0 Molar): 106%
activity at 0.1 µM ([3]; 10^-7.0 Molar): 98%
activity ([4]; 10^-3.0 Molar): -70%
activity at 100 µM ([4]; 10^-4.0 Molar): 51%
activity at 10 µM ([4]; 10^-5.0 Molar): 104%
activity at 1 µM ([4]; 10^-6.0 Molar): 110%
activity at 0.1 µM ([4]; 10^-7.0 Molar): 104%
activity ([5]; 10^-3.0 Molar): -96%
activity at 100 µM ([5]; 10^-4.0 Molar): 76%
activity at 1 µM ([5]; 10^-6.0 Molar): 103%
activity at 0.1 µM ([5]; 10^-7.0 Molar): 102%
activity ([6]; 10^-3.0 Molar): -85%
activity at 100 µM ([6]; 10^-4.0 Molar): 88%
activity at 10 µM ([6]; 10^-5.0 Molar): 103%
activity at 1 µM ([6]; 10^-6.0 Molar): 107%
activity at 0.1 µM ([6]; 10^-7.0 Molar): 105%
activity ([7]; 10^-3.0 Molar): -39%
activity at 100 µM ([7]; 10^-4.0 Molar): 90%
activity at 10 µM ([7]; 10^-5.0 Molar): 106%
activity at 1 µM ([7]; 10^-6.0 Molar): 100%
activity at 0.1 µM ([7]; 10^-7.0 Molar): 96%
activity ([8]; 10^-3.0 Molar): -49%
activity at 100 µM ([8]; 10^-4.0 Molar): 81%
activity at 10 µM ([8]; 10^-5.0 Molar): 108%
activity at 1 µM ([8]; 10^-6.0 Molar): 106%
activity at 0.1 µM ([8]; 10^-7.0 Molar): 102%
activity ([9]; 10^-3.0 Molar): -95%
activity at 100 µM ([9]; 10^-4.0 Molar): 47%
activity at 10 µM ([9]; 10^-5.0 Molar): 100%
activity at 1 µM ([9]; 10^-6.0 Molar): 100%
activity at 0.1 µM ([9]; 10^-7.0 Molar): 104%
activity ([10]; 10^-3.0 Molar): -100%
activity at 100 µM ([10]; 10^-4.0 Molar): 72%
activity at 10 µM ([10]; 10^-5.0 Molar): 101%
activity at 1 µM ([10]; 10^-6.0 Molar): 104%
activity at 0.1 µM ([10]; 10^-7.0 Molar): 95%
activity ([11]; 10^-3.0 Molar): -55%
activity at 100 µM ([11]; 10^-4.0 Molar): 87%
activity at 10 µM ([11]; 10^-5.0 Molar): 100%
activity at 1 µM ([11]; 10^-6.0 Molar): 106%
activity at 0.1 µM ([11]; 10^-7.0 Molar): 110%
activity ([12]; 10^-3.0 Molar): -42%
activity at 100 µM ([12]; 10^-4.0 Molar): 62%
activity at 10 µM ([12]; 10^-5.0 Molar): 89%
activity at 1 µM ([12]; 10^-6.0 Molar): 58%
activity at 0.1 µM ([12]; 10^-7.0 Molar): 90%
activity ([13]; 10^-3.0 Molar): -65%
activity at 100 µM ([13]; 10^-4.0 Molar): 83%
activity at 10 µM ([13]; 10^-5.0 Molar): 120%
activity at 1 µM ([13]; 10^-6.0 Molar): 113%
activity at 0.1 µM ([13]; 10^-7.0 Molar): 106%
activity ([14]; 10^-3.0 Molar): -39%
activity at 100 µM ([14]; 10^-4.0 Molar): 85%
activity at 10 µM ([14]; 10^-5.0 Molar): 99%
activity at 1 µM ([14]; 10^-6.0 Molar): 100%
activity at 0.1 µM ([14]; 10^-7.0 Molar): 110%
activity at 100 µM ([15]; 10^-4.0 Molar): 72%
activity at 10 µM ([15]; 10^-5.0 Molar): 102%
activity at 1 µM ([15]; 10^-6.0 Molar): 102%
activity at 0.1 µM ([15]; 10^-7.0 Molar): 99%
activity ([16]; 10^-3.0 Molar): -83%
activity at 100 µM ([16]; 10^-4.0 Molar): 81%
activity at 10 µM ([16]; 10^-5.0 Molar): 101%
activity at 1 µM ([16]; 10^-6.0 Molar): 101%
activity at 0.1 µM ([16]; 10^-7.0 Molar): 101%
activity ([17]; 10^-3.0 Molar): -100%
activity at 100 µM ([17]; 10^-4.0 Molar): 127%
activity at 10 µM ([17]; 10^-5.0 Molar): 136%
activity at 1 µM ([17]; 10^-6.0 Molar): 144%
activity at 0.1 µM ([17]; 10^-7.0 Molar): 145%
